From patent US12187723B2 (BRISTOL-MYERS SQUIBB COMPANY, priority 2019, dated 2025) come the findings set out here.

What is called IC50 is the concentration that gives 50% inhibition. Higher therefore signals a need for much substance.

This experiment deals with T1, human TLR8 (Homo sapiens, UniProt Q9NR97).
T1 construct: host or cells: HEK-Blue cells
T1 sequence (Q9NR97 27-1041): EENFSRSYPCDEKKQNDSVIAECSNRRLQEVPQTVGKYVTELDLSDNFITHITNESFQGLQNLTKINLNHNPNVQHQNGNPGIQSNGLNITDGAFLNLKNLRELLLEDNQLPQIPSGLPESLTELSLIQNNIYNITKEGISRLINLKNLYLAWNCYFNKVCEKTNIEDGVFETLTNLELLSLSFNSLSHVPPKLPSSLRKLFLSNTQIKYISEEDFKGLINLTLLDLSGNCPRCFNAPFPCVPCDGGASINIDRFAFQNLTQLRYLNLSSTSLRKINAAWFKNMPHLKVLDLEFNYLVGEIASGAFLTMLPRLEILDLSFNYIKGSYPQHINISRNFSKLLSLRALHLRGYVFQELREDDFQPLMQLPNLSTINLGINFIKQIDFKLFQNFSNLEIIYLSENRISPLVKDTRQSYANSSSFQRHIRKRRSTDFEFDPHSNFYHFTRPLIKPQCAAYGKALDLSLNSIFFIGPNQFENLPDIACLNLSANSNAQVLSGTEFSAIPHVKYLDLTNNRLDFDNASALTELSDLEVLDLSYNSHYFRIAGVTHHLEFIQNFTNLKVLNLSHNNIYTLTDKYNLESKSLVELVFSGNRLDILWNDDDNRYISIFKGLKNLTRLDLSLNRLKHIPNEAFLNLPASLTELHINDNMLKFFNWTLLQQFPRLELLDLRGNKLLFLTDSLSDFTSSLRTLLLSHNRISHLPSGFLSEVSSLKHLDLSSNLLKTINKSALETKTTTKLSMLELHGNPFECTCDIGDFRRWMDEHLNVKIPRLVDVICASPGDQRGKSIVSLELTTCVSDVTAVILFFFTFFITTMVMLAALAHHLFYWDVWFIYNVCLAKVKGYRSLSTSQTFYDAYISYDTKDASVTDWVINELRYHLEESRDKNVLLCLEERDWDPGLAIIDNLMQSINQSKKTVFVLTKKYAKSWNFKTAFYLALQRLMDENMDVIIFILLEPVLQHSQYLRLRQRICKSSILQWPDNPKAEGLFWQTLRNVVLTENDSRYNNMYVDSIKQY
Put plainly: TLR8 inhibition reporter assay (HEK-Blue SEAP). It is filed as cell-based. Conditions: HEK-Blue cells overexpressing human TLR8, R848 15.9 μM, 22 hour incubation. A digest of the protocol: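 HEK-Blue cells overexpressing human TLR7, TLR8 or TLR9 carry a SEAP reporter driven by NF-κB/AP-1 sites. Compounds (0.05 nM–50 μM) were preincubated 30 min at room temperature, then cells were stimulated with gardiquimod 7.5 μM (TLR7), R848 15.9 μM (TLR8) or ODN2006 5 nM (TLR9) for 22 h at 37 °C.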
(In general: Reporter assays use an easily measured gene product as a stand-in for the process of interest.)
Take `Cc1c(-c2cc3[nH]c(=O)n(C4CCC(N5CCC(F)(F)CC5)CC4)c3cc2C(C)C)cn2ncnc2c1C` (single isomer, unassigned) [Example 275, 1-(4-(4,4-difluoropiperidin-1-yl)cyclohexyl)-5-(7,8-dimethyl-[1,2,4]triazolo[1,5-a]pyridin-6-yl)-6-isopropyl-1,3-dihydro-2H-benzo[d]imidazol-2-one]: the IC50 was 0.81 nM.

The molecule `Cc1c(-c2cc3[nH]c(=O)n(C4CCC(N5CC6(COC6)C5)CC4)c3cc2C(C)C)cn2ncnc2c1C` (single isomer, unassigned) [Example 281, 1-(4-(2-oxa-6-azaspiro[3.3]heptan-6-yl)cyclohexyl)-5-(7,8-dimethyl-[1,2,4]triazolo[1,5-a]pyridin-6-yl)-6-isopropyl-1,3-dihydro-2H-benzo[d]imidazol-2-one] had an IC50 of 2.67 nM. Compared with the last molecule, the IC50 is about 3.3-fold higher.

Take `Cc1c(-c2cc3[nH]c(=O)n(C4CCC(N5CC(F)C5)CC4)c3cc2C(C)C)cn2ncnc2c1C` (stereo not shown) [Example 279, 5-(7,8-dimethyl-[1,2,4]triazolo[1,5-a]pyridin-6-yl)-1-(4-(3-fluoroazetidin-1-yl)cyclohexyl)-6-isopropyl-1,3-dihydro-2H-benzo[d]imidazol-2-one]: the IC50 worked out at 1.52 nM.

`Cc1c(-c2cc3[nH]c(=O)n(C4CCC(N5CCCOCC5)CC4)c3cc2C(C)C)cn2ncnc2c1C` (stereo not shown) [Example 272, 1-(4-(1,4-oxazepan-4-yl)cyclohexyl)-5-(7,8-dimethyl-[1,2,4]triazolo[1,5-a]pyridin-6-yl)-6-isopropyl-1,3-dihydro-2H-benzo[d]imidazol-2-one] returned an IC50 of 0.49 nM.

As for `COc1c(C)c(-c2cc3[nH]c(=O)n(C4CCC(N5CC(F)C5)CC4)c3cc2C(C)C)cn2ncnc12` (single isomer, unassigned) [Example 263, 1-(4-(3-fluoroazetidin-1-yl)cyclohexyl)-6-isopropyl-5-(8-methoxy-7-methyl-[1,2,4]triazolo[1,5-a]pyridin-6-yl)-1,3-dihydro-2H-benzo[d]imidazol-2-one], half-maximal inhibition (IC50) was put at 2.91 nM.

Take `COc1c(C)c(-c2cc3[nH]c(=O)n(C4CCC(N5CC6(COC6)C5)CC4)c3cc2C(C)C)cn2ncnc12` (single isomer, unassigned) [Example 270, 1-(4-(2-oxa-6-azaspiro[3.3]heptan-6-yl)cyclohexyl)-6-isopropyl-5-(8-methoxy-7-methyl-[1,2,4]triazolo[1,5-a]pyridin-6-yl)-1,3-dihydro-2H-benzo[d]imidazol-2-one]: the IC50 was 2.83 nM.

`COc1cc(-c2cc3[nH]c(=O)n(C4CCC(N(C)CCC(F)(F)F)CC4)c3cc2C(C)C)cn2ncnc12` (single isomer, unassigned) [Example 249, 6-isopropyl-5-(8-methoxy-[1,2,4]triazolo[1,5-a]pyridin-6-yl)-1-(4-(methyl(3,3,3-trifluoropropyl)amino)cyclohexyl)-1,3-dihydro-2H-benzo[d]imidazol-2-one] came in with an IC50 of 0.08 nM.

In turn, `Cc1cc2c(cc1-c1cc(C)c3ncnn3c1)[nH]c(=O)n2C1CCNCC1` [1 EA, 6-methyl-5-(8-methyl-[1,2,4]triazolo[1,5-a]pyridin-6-yl)-1-(piperidin-4-yl)-1,3-dihydro-2H-benzo[d]imidazol-2-one] came in with an IC50 of 439 nM.

As for `COc1cc(-c2cc3[nH]c(=O)n(C4CCC(N5CC(F)(F)C5)CC4)c3cc2C(C)C)cn2ncnc12` (single isomer, unassigned) [Example 297], 8.4 nM corresponded to half-maximal inhibition (IC50).

On to `COc1cc(-c2cc3[nH]c(=O)n(C4CCC(N5CC6(C5)CS(=O)(=O)C6)CC4)c3cc2C(C)C)cn2ncnc12` (single isomer, unassigned) [Example 245, 1-(4-(2,2-dioxido-2-thia-6-azaspiro[3.3]heptan-6-yl)cyclohexyl)-6-isopropyl-5-(8-methoxy-[1,2,4]triazolo[1,5-a]pyridin-6-yl)-1,3-dihydro-2H-benzo[d]imidazol-2-one], for which half-maximal inhibition (IC50) was put at 11.7 nM.
